“And” between values parts separate entries of the source, which are not always exact repeats. Equal entries are not always repeated.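 Step 1: Grow cells in 96-well plates. Step 2: Expose to compound for 48 hours at 5 concentrations. Step 3: Interpolate endpoints linearly; if unreached, use highest concentration. Here, GI50 denotes the concentration required for 50% inhibition of growth. TGI is the concentration that stops growth completely.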

Among the test systems are DU-145 prostate; HOP-62 NSCLC; KM12 colon; MDA-MB-231 breast; SF-539 CNS; SK-MEL-5 melanoma; UACC-62 melanoma; UO-31 renal.
Common to all, as to test: NCI anticancer screen, dose series, 48 h

On to `COc1cc2c(cc1OCCCN1CCN(c3cc(=O)oc4c(C)c(OC)ccc34)CC1)N=C[C@@H]1CCCN1C2=O`, for which the GI50 in the test on DU-145 prostate is 0.935 µM; with HOP-62 NSCLC, 1.64 µM; in the test with KM12 colon, 1.65 µM; in the test with MDA-MB-231 breast, 0.984 µM; with SF-539 CNS, 1.73 µM; in the test with SK-MEL-5 melanoma, 1.61 µM. Moreover, the GI50 with UACC-62 melanoma was 1.36 µM. Besides, the TGI with DU-145 prostate was greater than 100 µM; in the test on HOP-62 NSCLC, 10.3 µM; in the test with KM12 colon, 9.11 µM; with MDA-MB-231 breast, 5.99 µM; in the test on SF-539 CNS, 7.97 µM; in the test with SK-MEL-5 melanoma, 3.83 µM. Further, the TGI in the test on UACC-62 melanoma came to 2.87 µM.
Consider `CN1C(=O)C(c2c[nH]c3ccccc23)=C(c2c(-c3c[nH]c4ccccc34)[nH]c3ccccc23)C1=O`, for which the GI50 was 3 µM with DU-145 prostate; 2.1 µM in the test on HOP-62 NSCLC; 2.13 µM in the test on KM12 colon; 4.09 µM in the test with MDA-MB-231 breast; 1.81 µM in the test on SF-539 CNS; 2.91 µM in the test on UACC-62 melanoma. In addition, the GI50 in the test with UO-31 renal was 15.2 µM. Further, the TGI in the test on DU-145 prostate is 12.2 µM; in the test with HOP-62 NSCLC it was 11.9 µM; in the test with KM12 colon, 7.61 µM; in the test with MDA-MB-231 breast, 26.9 µM; in the test on SF-539 CNS, 3.67 µM; in the test with UACC-62 melanoma, 5.54 µM. Also, in the test with UO-31 renal, the TGI was greater than 100 µM.
In the case of `N#C[C@H]1Nc2ccccc2[C@@H](O)C1O` (stereo not given in full), the TGI in the test on DU-145 prostate, in the test with HOP-62 NSCLC, in the test with KM12 colon, in the test with MDA-MB-231 breast, in the test on SF-539 CNS and in the test with SK-MEL-5 melanoma was greater than 100 µM in each case. The TGI in the test with UACC-62 melanoma was greater than 100 µM.
As to `COc1cc(/C=C2\C(=O)Nc3ccccc32)cc(OC)c1OC`, the GI50 is 22.2 µM in the test with HOP-62 NSCLC; 11.7 µM in the test with KM12 colon; 11.4 µM in the test on MDA-MB-231 breast; 27.9 µM in the test with SF-539 CNS; 11.1 µM in the test on SK-MEL-5 melanoma; 14.4 µM in the test on UACC-62 melanoma. Besides, the GI50 in the test with UO-31 renal is 30.4 µM. For the same compound, the TGI is 62.3 µM in the test on HOP-62 NSCLC; 98 µM in the test on KM12 colon; 78.1 µM in the test on MDA-MB-231 breast; greater than 100 µM with SF-539 CNS; 57.1 µM with SK-MEL-5 melanoma; greater than 100 µM in the test on UACC-62 melanoma. In the test with UO-31 renal, this compound returned a TGI greater than 100 µM.
For the compound `NC(N)=N/N=C/c1c(-c2ccc(Cl)c([N+](=O)[O-])c2)nc2ccccn12`, the GI50 is 1.94 µM in the test with DU-145 prostate; 1.56 µM with HOP-62 NSCLC; 1.69 µM in the test on MDA-MB-231 breast; 0.122 µM with SF-539 CNS; 13.3 µM with SK-MEL-5 melanoma; 1.71 µM with UO-31 renal. Also, the TGI turned out to be 5.6 µM in the test with DU-145 prostate; 2.9 µM in the test with HOP-62 NSCLC; 3.29 µM in the test on MDA-MB-231 breast; 1.53 µM in the test with SF-539 CNS; 41.3 µM in the test on SK-MEL-5 melanoma; 3.79 µM with UO-31 renal.
In the case of `CCCCCCCCCCCCCCCCn1cc[n+](Cc2ccccc2)c1C`, the GI50 in the test on DU-145 prostate is 1.07 µM and 0.235 µM; in the test with KM12 colon, 1.36 µM and 0.176 µM; in the test on MDA-MB-231 breast it was 0.0684 µM; with SF-539 CNS, 1.67 µM; in the test on UACC-62 melanoma it was 0.577 µM and 0.232 µM; with UO-31 renal, 1.49 µM. The TGI is 2.3 µM and 1.05 µM in the test with DU-145 prostate; 2.87 µM and 0.407 µM in the test with KM12 colon; 0.989 µM in the test on MDA-MB-231 breast; 4.36 µM in the test on SF-539 CNS; 2.01 µM and 1.21 µM in the test on UACC-62 melanoma; 2.99 µM in the test with UO-31 renal.
For the compound `CCOC(=O)C1=C(c2ccccc2)N(c2ccc(OC)cc2)[C@]2(C#N)C(O)=C(Cl)C(Cl)=C(O)[C@]12C#N`, the GI50 was 31.9 µM with DU-145 prostate; 20.9 µM with HOP-62 NSCLC; 18.3 µM in the test with KM12 colon; 20.1 µM in the test with MDA-MB-231 breast; 24.5 µM in the test with SF-539 CNS; 22.1 µM in the test on SK-MEL-5 melanoma. For the same compound, the GI50 with UO-31 renal was 24.6 µM. Besides, the TGI in the test on DU-145 prostate is greater than 100 µM; with HOP-62 NSCLC, 40.1 µM; with KM12 colon, 36.5 µM; with MDA-MB-231 breast, 44.3 µM; in the test on SF-539 CNS it was 56.3 µM; in the test with SK-MEL-5 melanoma, 51.9 µM. Moreover, the TGI in the test on UO-31 renal amounted to 68 µM.
Consider `CC(=O)OC12CC(C)C3(O)C4C=C(C)C(=O)[C@@]4(O)CC(CO)=C[C@H]3C1C2(C)C` (stereo not given in full), for which the GI50 is greater than 1000 µM in the test with DU-145 prostate; greater than 1000 µM with KM12 colon; greater than 1000 µM in the test on SF-539 CNS; 33.4 µM in the test on SK-MEL-5 melanoma; greater than 1000 µM in the test on UO-31 renal. Also, the TGI with DU-145 prostate, in the test with KM12 colon, with SF-539 CNS, in the test on SK-MEL-5 melanoma, with UACC-62 melanoma and in the test on UO-31 renal was greater than 1000 µM each time.
On to `OCc1ccc(Oc2c3ccccc3nc3occc23)cc1`, for which the GI50 in the test with DU-145 prostate is 33.6 µM; in the test with HOP-62 NSCLC, 30.4 µM; in the test on KM12 colon, 17.8 µM; in the test on MDA-MB-231 breast it was 39.4 µM; in the test on SF-539 CNS, 28.9 µM; in the test on UACC-62 melanoma it was 20 µM. The GI50 with UO-31 renal was 77.2 µM. For the same compound, the TGI in the test on DU-145 prostate was greater than 100 µM; in the test on HOP-62 NSCLC it was greater than 100 µM; in the test with KM12 colon, 37.8 µM; in the test on MDA-MB-231 breast, greater than 100 µM; with SF-539 CNS, 71 µM; in the test on UACC-62 melanoma, 47.3 µM. The TGI in the test on UO-31 renal was greater than 100 µM.
Turning to `COc1ccc(-c2csc3c2-n2cccc2C3=O)cc1O`, the GI50 is 0.0578 µM in the test on HOP-62 NSCLC; 0.0653 µM in the test on KM12 colon; 0.0925 µM in the test with MDA-MB-231 breast; 0.0226 µM in the test on SF-539 CNS; 0.0326 µM in the test on SK-MEL-5 melanoma; 0.387 µM in the test on UACC-62 melanoma. Besides, the GI50 in the test with UO-31 renal was 0.401 µM. Besides, the TGI is greater than 100 µM in the test with HOP-62 NSCLC; greater than 100 µM in the test on KM12 colon; greater than 100 µM in the test on MDA-MB-231 breast; greater than 100 µM in the test with SF-539 CNS; 0.237 µM in the test with SK-MEL-5 melanoma; 49.2 µM in the test with UACC-62 melanoma. Moreover, the TGI in the test on UO-31 renal was 50.6 µM.
On to `C=C1C(=O)O[C@H]2C[C@@H]1CCC1(C)OC1CC/C(C)=C/CC[C@H]2C` (stereo not given in full), for which the GI50 in the test with HOP-62 NSCLC is 18.9 µM; in the test on KM12 colon it was 22.2 µM; with MDA-MB-231 breast, 17.7 µM; with SF-539 CNS, 28.8 µM; in the test on SK-MEL-5 melanoma, 17.3 µM; in the test with UACC-62 melanoma, 17.5 µM. For the same compound, the GI50 with UO-31 renal was 29.8 µM. Further, the TGI in the test with HOP-62 NSCLC stood at 34.5 µM; in the test with KM12 colon it was 43.1 µM; in the test with MDA-MB-231 breast, 32.2 µM; in the test with SF-539 CNS it was 50.6 µM; in the test on SK-MEL-5 melanoma, 31.5 µM; with UACC-62 melanoma it was 31.3 µM. The compound further registered a TGI in the test with UO-31 renal of 86.6 µM.
